Test: Rate of tetrazine ligation, by restoring of fluorescence, stopped-flow spectrophotometer
Settings: 9:1 H2O:MeOH at 25° C., low concentration
Excerpt: The rate of the reaction between (E)-Si-(4-hydroxybutyl)-Si-methyl-5-silacycloheptene and tetramethylrhodamine-conjugated dipyridyl tetrazine was studied. The results are shown in Scheme 2. With a rate constant that exceeds 10^7 M^−1s^−1 (Scheme 2), (E)-Si-(4-hydroxybutyl)-Si-methyl-5-silacycloheptene is the most reactive dienophile to date for bioorthogonal applications. As the reaction was too rapid for reliable rate determination by UV-vis kinetics, the inventors determined the rate of the reaction by the restoring of fluorescence after tetrazine ligation at low concentration in 9:1 H2O:MeOH at 25° C. by using an SX 18MV-R stopped-flow spectrophotometer (Applied Photophysics Ltd.). This is depicted in Scheme 4.

## C[Si]1(CCCCO)CCC=CCC1 [(E)-Si-(4-hydroxybutyl)-Si-methyl-5-silacycloheptene]
  rate constant of reaction with tetrazine: exceeds 10^7 M^−1s^−1

Reference: patent US10155777B2, “Trans-cycloheptenes and hetero-trans-cycloheptenes for bioorthogonal coupling” (UNIVERSITY OF DELAWARE, priority 2015, dated 2018)
